{"source": "patent US10906876B2", "about": "“Tetrahydroisoquinolines as selective NADPH oxidase 2 inhibitors” (University of Pittsburgh—Of the Commonwealth System of …, priority 2013, dated 2021)", "biological_target": "T1, Nox2 (Homo sapiens, UniProt P04839)", "T1 construct": "expressed in transfected cells", "T1 sequence (P04839 2-570 limits assumed)": "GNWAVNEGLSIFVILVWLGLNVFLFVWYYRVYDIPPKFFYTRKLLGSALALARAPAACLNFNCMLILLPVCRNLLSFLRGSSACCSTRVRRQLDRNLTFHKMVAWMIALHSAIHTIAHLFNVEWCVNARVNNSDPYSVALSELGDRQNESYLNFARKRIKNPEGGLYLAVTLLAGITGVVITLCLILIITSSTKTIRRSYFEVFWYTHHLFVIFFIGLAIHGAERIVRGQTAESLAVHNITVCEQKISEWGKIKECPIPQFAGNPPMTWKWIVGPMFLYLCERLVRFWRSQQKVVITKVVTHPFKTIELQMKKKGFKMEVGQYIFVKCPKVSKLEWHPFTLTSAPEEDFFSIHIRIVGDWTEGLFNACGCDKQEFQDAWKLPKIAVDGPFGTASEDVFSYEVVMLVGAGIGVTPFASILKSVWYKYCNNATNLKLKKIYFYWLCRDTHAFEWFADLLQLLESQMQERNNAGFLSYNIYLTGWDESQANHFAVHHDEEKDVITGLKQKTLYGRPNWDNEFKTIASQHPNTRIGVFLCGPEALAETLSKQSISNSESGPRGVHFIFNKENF", "experiment": "ROS production of transiently Nox2-transfected Cos cells treated with PMA", "assay_type": "cell-based", "conditions": "10 μM compound", "description": "Cell transfection was carried out using Lipofectamine LTX and Plus reagent (Invitrogen, Carlsbad, Calif., USA), according to the manufacturer's instructions. COS-22 cells were transiently co-transfected with pcDNA 3.1-hNox1, pCMVsport 6-hNOXA1 and pcDNA3.1-hNoxO1 (COS-Nox1/NOXO1/NOXA1 cells) or with pcDNA3.1/Hygro-hNox4 (COS-Nox4 cells). Cells were used 24 hr after transfection. Adherent cells were harvested by incubating with 0.05% trypsin/EDTA for 5 min at 37° C. Following addition of DMEM/10% FBS to neutralize the trypsin, the cells were pelleted by centrifugation at 1100×g for 5 min at 4° C. and used for the experiments.\nSince p47^phox activation is important not only for Nox2 activity but also for Nox1 hybrid system present mainly in human endothelial cells, the effect of compounds 11g and 11h on ROS production of transiently Nox2-transfected (FIG. 13) or Nox1 hybrid system-transfected Cos cells (FIG. 14) treated with phorbol ester (PMA) was evaluated.", "data": [{"smiles": "C=C(C)CC1C2c3c(Br)cccc3C(CC2(C)C)N1CCCCC", "note": "(racemic) [Compound 11g, (±)-(1S,4R,9S)-5-Bromo-3,3-dimethyl-9-(2-methylallyl-10-pentyl-1,2,3,4-tetrahydro-1,4-(epiminomethano)naphthalene]", "values": [{"measurement": "PMA-stimulated ROS production, Nox2-transfected Cos cells", "value": "inhibited"}]}]}
